Data as given in PubChem BioAssay AID330 (DTP/NCI, 2004).
“And” between values parts separate entries of the source, which are not always exact repeats. Identical values can stand only once. Toxic doses and inconclusive results are not listed. How the source made its calls: active means survival T/C of 150% or more; inactive means T/C below 125% in these data.

Test system: P388 leukemia ip, CD2F1 mice, survival T/C
Test: NCI In Vivo Anticancer Drug Screen. Data for tumor model P388 Leukemia (intraperitoneal) in CD2F1 (CDF1) mice
Conditions: endpoint: median survival time, higher = longer survival
Procedure, shortened: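 Mice carrying the transplanted tumor received test compound or vehicle. Survival was recorded in each group, and the value is the treated-group measurement divided by that of the vehicle-treated control group.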

[1] = dose: 60.0 mg/kg/injection, schedule: Q01DX005 (ip), vehicle: saline with Tween-80
[2] = dose: 120.0 mg/kg/injection, schedule: Q01DX005 (ip), vehicle: saline with Tween-80
[3] = dose: 100.0 mg/kg/injection, schedule: Q01DX005 (ip), vehicle: saline with Tween-80
[4] = dose: 50.0 mg/kg/injection, schedule: Q01DX005 (ip), vehicle: Klucel (hydroxypropylcellulose) (HPC)
[5] = dose: 100.0 mg/kg/injection, schedule: Q01DX005 (ip), vehicle: Klucel (hydroxypropylcellulose) (HPC)
[6] = dose: 200.0 mg/kg/injection, schedule: Q01DX005 (ip), vehicle: Klucel (hydroxypropylcellulose) (HPC)
[7] = dose: 50.0 mg/kg/injection, schedule: Q01DX005 (ip), vehicle: saline with Tween-80
[8] = dose: 50.0 mg/kg/injection, schedule: Q01DX009 (ip), vehicle: saline with Tween-80
[9] = dose: 100.0 mg/kg/injection, schedule: Q01DX009 (ip), vehicle: saline with Tween-80
[10] = dose: 200.0 mg/kg/injection, schedule: Q01DX009 (ip), vehicle: saline with Tween-80
[11] = dose: 200.0 mg/kg/injection, schedule: Q01DX005 (ip), vehicle: saline with Tween-80

Measured: T/C

CN1CC(C2(O)CCN(C)C2=O)C(O)C1=O (centres undefined)
inactive: dose: 100.0 mg/kg/injection, schedule: Q01DX001 (ip), vehicle: saline 104 % of control | dose: 200.0 mg/kg/injection, schedule: Q01DX001 (ip), vehicle: saline 97 % of control

O=C(CCCl)Nc1cc2ccccc2oc1=O
inactive: [1] 91 % of control | [2] 92 % of control | dose: 240.0 mg/kg/injection, schedule: Q01DX005 (ip), vehicle: saline with Tween-80 89 % of control

Cn1c2ccccc2c(=Nc2ccc(S(N)(=O)=O)cc2)c2ccccc21
inactive: [3] 97 % of control

COC(=O)c1cc2c3c(ccc2[nH]1)N(C(=O)c1cc2c4c(ccc2[nH]1)N(C(=O)c1cc2c5c(ccc2[nH]1)N(C(N)=O)CC5)CC4)CC3
inactive: dose: 12.5 mg/kg/injection, schedule: Q01DX005 (ip), vehicle: DMSO 110 % of control | dose: 25.0 mg/kg/injection, schedule: Q01DX005 (ip), vehicle: DMSO 111 % of control | dose: 50.0 mg/kg/injection, schedule: Q01DX005 (ip), vehicle: DMSO 105 % of control | dose: 100.0 mg/kg/injection, schedule: Q01DX005 (ip), vehicle: DMSO 112 % of control

CCN(CC)CCCC(C)n1c2nc(=O)[nH]c(=O)c-2nc2ccc(Cl)cc21 (centres undefined)
inactive: dose: 6.25 mg/kg/injection, schedule: Q01DX005 (ip), vehicle: saline 100 % of control | dose: 12.5 mg/kg/injection, schedule: Q01DX005 (ip), vehicle: saline 107 % of control | dose: 25.0 mg/kg/injection, schedule: Q01DX005 (ip), vehicle: saline 112 % of control

CCOC(=O)c1nc(SC)sc1N
inactive: [1] 95 % of control | [2] 102 % of control

COc1cc(CNC(=O)CCCC/C=C\C(C)C)ccc1OC(=O)/C=C/c1ccccc1
inactive: dose: 1.55 mg/kg/injection, schedule: Q01DX009 (ip), vehicle: Klucel (hydroxypropylcellulose) (HPC) 100 % of control | dose: 3.1 mg/kg/injection, schedule: Q01DX009 (ip), vehicle: Klucel (hydroxypropylcellulose) (HPC) 106 % of control | dose: 6.2 mg/kg/injection, schedule: Q01DX009 (ip), vehicle: Klucel (hydroxypropylcellulose) (HPC) 103 % of control

C1=C(CC[Si]23OCCN(CCO2)CCO3)CCCC1
inactive: [4] 110 % of control | [5] 103 % of control | [6] 103 % of control

CC[C@@H](C)C(=O)O[C@H]1[C@H](O)[C@H]2[C@@H](CN3C[C@@H](C)CC[C@H]3[C@@]2(C)O)[C@@H]2CC34O[C@]5(O)[C@@H](OC(=O)[C@@](C)(O)CC)CC[C@@]3(C)[C@@H]5[C@@H](OC(C)=O)[C@@H](OC(C)=O)[C@H]4[C@@]21O
inactive: dose: 0.1 mg/kg/injection, schedule: Q01DX005 (ip), vehicle: saline 102 % of control | dose: 0.4 mg/kg/injection, schedule: Q01DX005 (ip), vehicle: saline with Tween-80 100 % of control | dose: 25.0 micrograms/kg/injection, schedule: Q01DX005 (ip), vehicle: saline 97 % of control | dose: 50.0 micrograms/kg/injection, schedule: Q01DX005 (ip), vehicle: saline 94 % of control | dose: 100.0 micrograms/kg/injection, schedule: Q01DX005 (ip), vehicle: saline 94 % of control

O=C1Nc2c(Cl)cc(Cl)cc2/C1=N/N=C/c1ccccc1O
inactive: [7] 91 % of control

O=C(c1ccccc1)c1ccccc1-c1ccccc1C(=O)c1ccccc1
inactive: [8] 102 % of control | [9] 92 % of control | [10] 87 % of control

CC1=C(N2CCOCC2)C(N2CCOCC2)=C(C)C(=O)C1=O
inactive: dose: 12.5 mg/kg/injection, schedule: Q01DX005 (ip), vehicle: Klucel (hydroxypropylcellulose) (HPC) 108 % of control | dose: 25.0 mg/kg/injection, schedule: Q01DX005 (ip), vehicle: Klucel (hydroxypropylcellulose) (HPC) 101 % of control | [4] 108 % of control | [5] 97 % of control | [6] 96 % of control

CCN1c2ccccc2CC(C#N)(CCN(C)C)c2ccccc21 (centres undefined)
inactive: dose: 12.5 mg/kg/injection, schedule: Q01DX009 (ip), vehicle: saline with Tween-80 100 % of control | dose: 25.0 mg/kg/injection, schedule: Q01DX009 (ip), vehicle: saline with Tween-80 99 % of control | [8] 104 % of control

CCOC(=O)c1c(-c2ccccc2)csc1NC(=O)CN1CCCCC1
inactive: [7] 98 % of control | [3] 114 % of control | [11] 113 % of control

CCCCC(CC)(CCN)CCCC
inactive: dose: 5.0 mg/kg/injection, schedule: Q01DX009 (ip), vehicle: suspension in saline 107 % of control | dose: 10.0 mg/kg/injection, schedule: Q01DX009 (ip), vehicle: suspension in saline 103 % of control | dose: 20.0 mg/kg/injection, schedule: Q01DX009 (ip), vehicle: suspension in saline 90 % of control

CSCS(=O)CC(C)C (centres undefined)
inactive: dose: 50.0 mg/kg/injection, schedule: Q01DX005 (ip), vehicle: water 104 % of control | dose: 100.0 mg/kg/injection, schedule: Q01DX005 (ip), vehicle: water 102 % of control | dose: 200.0 mg/kg/injection, schedule: Q01DX005 (ip), vehicle: water 105 % of control

COc1cc(=O)n(-c2ccccc2)nc1C#N
inactive: [7] 93 % of control | [3] 92 % of control | [11] 90 % of control

CCOC(=O)COc1cc2c(cc1C(C)c1ccc(OC)cc1)OCO2 (centres undefined)
inactive: [4] 104 % of control | [5] 100 % of control | [6] 94 % of control

CC(C)(CO)NC(=O)c1ccccc1Br
inactive: [8] 100 % of control | [9] 100 % of control | [10] 99 % of control

COC(=O)NC(NC(=O)OC)C(F)(F)C(NC(=O)OC)NC(=O)OC
inactive: dose: 60.0 mg/kg/injection, schedule: Q01DX005 (ip), vehicle: Klucel (hydroxypropylcellulose) (HPC) 96 % of control | dose: 120.0 mg/kg/injection, schedule: Q01DX005 (ip), vehicle: Klucel (hydroxypropylcellulose) (HPC) 95 % of control

CCN(CC)CCNc1cc(O)c2c(c1O)C(=O)c1ccccc1C2=O
inactive: dose: 25.0 mg/kg/injection, schedule: Q04DX002 (ip), vehicle: saline with Tween-80 105 % of control | dose: 50.0 mg/kg/injection, schedule: Q04DX002 (ip), vehicle: saline with Tween-80 98 % of control | dose: 100.0 mg/kg/injection, schedule: Q04DX002 (ip), vehicle: saline with Tween-80 103 % of control and 107 % of control

O=C(CN(OC(=O)c1ccccc1)C(=O)c1ccccc1)OCc1ccccc1
inactive: dose: 12.5 mg/kg/injection, schedule: Q01DX009 (ip), vehicle: distilled water + Tween-80 92 % of control | dose: 25.0 mg/kg/injection, schedule: Q01DX009 (ip), vehicle: distilled water + Tween-80 99 % of control | dose: 50.0 mg/kg/injection, schedule: Q01DX009 (ip), vehicle: distilled water + Tween-80 99 % of control | dose: 100.0 mg/kg/injection, schedule: Q01DX009 (ip), vehicle: distilled water + Tween-80 100 % of control | dose: 200.0 mg/kg/injection, schedule: Q01DX009 (ip), vehicle: distilled water + Tween-80 101 % of control

CC(C)(C)C1(C#N)C(=O)N(c2ccc(Cl)cc2)C12c1ccccc1-c1ccccc12 (centres undefined)
inactive: dose: 50.0 mg/kg/injection, schedule: Q01DX009 (ip), vehicle: Klucel (hydroxypropylcellulose) (HPC) 99 % of control | dose: 100.0 mg/kg/injection, schedule: Q01DX009 (ip), vehicle: Klucel (hydroxypropylcellulose) (HPC) 118 % of control | dose: 200.0 mg/kg/injection, schedule: Q01DX009 (ip), vehicle: Klucel (hydroxypropylcellulose) (HPC) 105 % of control
